# Reference: ChEMBL document CHEMBL5465560, “Selectivity Literature for EUbOPEN Chemogenomic Library” (2024)
# Columns and labels:
# [1] = biological target: 4-aminobutyrate aminotransferase, mitochondrial (Homo sapiens, UniProt P80404); assay: Selectivity interaction (GPCR panel (PDSP screen)) EUB0000311b ABAT; details: at 10 µM
# [2] = biological target: Serine/threonine-protein kinase PAK 1 (Homo sapiens) (UniProt Q13153); assay: Selectivity interaction (KinomeScan (DiscoverX)) EUB0001049a PAK1; details: at 1 µM
# Chain of Serine/threonine-protein kinase PAK 1 (Homo sapiens) (Q13153 whole entry): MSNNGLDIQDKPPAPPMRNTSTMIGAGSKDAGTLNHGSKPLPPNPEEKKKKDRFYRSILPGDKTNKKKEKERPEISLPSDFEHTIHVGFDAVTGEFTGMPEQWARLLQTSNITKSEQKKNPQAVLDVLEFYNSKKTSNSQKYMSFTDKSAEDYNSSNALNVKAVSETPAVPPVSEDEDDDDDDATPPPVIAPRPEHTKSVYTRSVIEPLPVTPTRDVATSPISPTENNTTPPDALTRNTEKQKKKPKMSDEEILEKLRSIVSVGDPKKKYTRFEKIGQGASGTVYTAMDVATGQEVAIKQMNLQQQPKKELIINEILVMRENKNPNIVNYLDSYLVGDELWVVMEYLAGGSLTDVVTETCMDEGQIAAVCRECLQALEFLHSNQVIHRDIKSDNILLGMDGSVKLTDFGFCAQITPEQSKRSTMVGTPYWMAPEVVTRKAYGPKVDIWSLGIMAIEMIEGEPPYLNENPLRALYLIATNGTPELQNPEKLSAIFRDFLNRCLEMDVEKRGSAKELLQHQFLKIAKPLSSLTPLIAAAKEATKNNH
# [3] = biological target: Wee1-like protein kinase 2 (Homo sapiens) (UniProt P0C1S8); assay: Selectivity interaction (KinomeScan (DiscoverX)) EUB0000229b WEE2; details: at 10 µM
# Chain of Wee1-like protein kinase 2 (Homo sapiens) (P0C1S8 whole entry, looked up, the tested form may be a part): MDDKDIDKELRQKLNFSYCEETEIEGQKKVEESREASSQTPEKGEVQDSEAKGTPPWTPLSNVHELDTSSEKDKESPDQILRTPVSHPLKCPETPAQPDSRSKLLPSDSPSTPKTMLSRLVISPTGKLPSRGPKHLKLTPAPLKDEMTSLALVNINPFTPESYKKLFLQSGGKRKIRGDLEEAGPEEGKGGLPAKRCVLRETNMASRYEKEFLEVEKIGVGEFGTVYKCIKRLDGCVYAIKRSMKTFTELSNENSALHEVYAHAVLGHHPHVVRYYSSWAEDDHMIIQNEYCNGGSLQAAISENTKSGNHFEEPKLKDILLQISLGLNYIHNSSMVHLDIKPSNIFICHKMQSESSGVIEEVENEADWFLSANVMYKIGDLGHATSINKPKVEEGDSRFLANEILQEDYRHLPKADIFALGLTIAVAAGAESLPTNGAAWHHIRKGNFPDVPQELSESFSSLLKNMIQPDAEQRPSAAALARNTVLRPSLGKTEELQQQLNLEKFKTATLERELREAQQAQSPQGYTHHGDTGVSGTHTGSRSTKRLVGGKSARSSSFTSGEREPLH
# [4] = biological target: Phosphatidylinositol 4-phosphate 3-kinase C2 domain-containing subunit beta (Homo sapiens) (UniProt O00750); assay: Selectivity interaction (KinomeScan (DiscoverX)) EUB0001079a PIK3C2B; details: at 1 µM
# [5] = biological target: Serine/threonine-protein kinase 38-like (Homo sapiens) (UniProt Q9Y2H1); assay: Selectivity interaction (Kinase panel (KiNativ target engagement assay in Jurkat cells)) EUB0001635a STK38L; format: cell-based; details: Selectivity number of off-targets 0.0, Selectivity number of targets 233.0, Source Knowledge https://www.sciencedirect.com/science/article/pii/S2451945619300674?via%3Dihub, at 1 µM
# Chain of Serine/threonine-protein kinase 38-like (Homo sapiens) (Q9Y2H1 2-464 limits assumed): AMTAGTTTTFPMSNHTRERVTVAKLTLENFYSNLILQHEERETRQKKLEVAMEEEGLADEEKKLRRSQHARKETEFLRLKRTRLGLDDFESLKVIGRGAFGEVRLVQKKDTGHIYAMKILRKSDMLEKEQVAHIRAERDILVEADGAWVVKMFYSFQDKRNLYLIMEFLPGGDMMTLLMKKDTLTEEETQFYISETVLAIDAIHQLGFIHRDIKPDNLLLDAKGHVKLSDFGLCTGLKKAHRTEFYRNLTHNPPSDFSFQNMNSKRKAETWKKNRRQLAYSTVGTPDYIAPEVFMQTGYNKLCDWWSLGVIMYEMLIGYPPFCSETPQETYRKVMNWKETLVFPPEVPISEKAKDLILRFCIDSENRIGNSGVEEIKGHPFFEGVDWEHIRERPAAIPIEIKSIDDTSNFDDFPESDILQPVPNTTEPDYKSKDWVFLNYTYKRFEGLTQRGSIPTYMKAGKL
# [6] = biological target: Serine/threonine-protein kinase SIK2 (Homo sapiens) (UniProt Q9H0K1); details: at 10 µM
# Chain of Serine/threonine-protein kinase SIK2 (Homo sapiens) (Q9H0K1 whole entry, looked up): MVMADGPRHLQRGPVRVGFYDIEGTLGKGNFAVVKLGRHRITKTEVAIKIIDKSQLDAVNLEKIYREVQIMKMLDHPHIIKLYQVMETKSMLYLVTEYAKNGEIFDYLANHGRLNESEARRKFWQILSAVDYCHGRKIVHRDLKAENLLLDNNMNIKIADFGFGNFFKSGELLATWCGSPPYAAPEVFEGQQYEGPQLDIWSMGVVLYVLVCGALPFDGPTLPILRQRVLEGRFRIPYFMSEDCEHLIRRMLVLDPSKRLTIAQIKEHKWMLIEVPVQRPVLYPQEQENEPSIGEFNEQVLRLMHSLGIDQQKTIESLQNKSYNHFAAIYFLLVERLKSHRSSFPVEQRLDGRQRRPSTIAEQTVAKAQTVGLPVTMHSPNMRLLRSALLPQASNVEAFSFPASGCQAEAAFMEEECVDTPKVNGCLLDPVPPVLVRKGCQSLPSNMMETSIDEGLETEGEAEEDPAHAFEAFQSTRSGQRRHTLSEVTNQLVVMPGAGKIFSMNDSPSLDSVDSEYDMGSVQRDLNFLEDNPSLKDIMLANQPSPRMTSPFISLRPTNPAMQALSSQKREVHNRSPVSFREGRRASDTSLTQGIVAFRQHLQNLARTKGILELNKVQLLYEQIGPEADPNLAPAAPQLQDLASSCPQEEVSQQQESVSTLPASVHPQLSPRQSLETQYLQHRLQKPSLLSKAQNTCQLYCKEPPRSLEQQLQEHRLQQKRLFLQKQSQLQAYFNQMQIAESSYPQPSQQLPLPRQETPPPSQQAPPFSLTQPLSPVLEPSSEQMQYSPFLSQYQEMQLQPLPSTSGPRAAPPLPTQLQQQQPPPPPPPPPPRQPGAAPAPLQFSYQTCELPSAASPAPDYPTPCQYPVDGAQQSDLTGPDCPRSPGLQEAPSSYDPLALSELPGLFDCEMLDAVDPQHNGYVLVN
# [7] = system: eIF-2-alpha kinase GCN2 (Homo sapiens), Q9P2K8 [S808G]; details: at 10 µM
# [8] = biological target: T1, Serine/threonine-protein kinase tousled-like 1 (Homo sapiens) (UniProt Q9UKI8); assay: Selectivity interaction (ActivX KiNativ screen (kinase selectivity in THP-1 cell lysates)) EUB0000639a TLK1; format: subcellular; details: lysate, at 5 µM
# T1 sequence (whole entry): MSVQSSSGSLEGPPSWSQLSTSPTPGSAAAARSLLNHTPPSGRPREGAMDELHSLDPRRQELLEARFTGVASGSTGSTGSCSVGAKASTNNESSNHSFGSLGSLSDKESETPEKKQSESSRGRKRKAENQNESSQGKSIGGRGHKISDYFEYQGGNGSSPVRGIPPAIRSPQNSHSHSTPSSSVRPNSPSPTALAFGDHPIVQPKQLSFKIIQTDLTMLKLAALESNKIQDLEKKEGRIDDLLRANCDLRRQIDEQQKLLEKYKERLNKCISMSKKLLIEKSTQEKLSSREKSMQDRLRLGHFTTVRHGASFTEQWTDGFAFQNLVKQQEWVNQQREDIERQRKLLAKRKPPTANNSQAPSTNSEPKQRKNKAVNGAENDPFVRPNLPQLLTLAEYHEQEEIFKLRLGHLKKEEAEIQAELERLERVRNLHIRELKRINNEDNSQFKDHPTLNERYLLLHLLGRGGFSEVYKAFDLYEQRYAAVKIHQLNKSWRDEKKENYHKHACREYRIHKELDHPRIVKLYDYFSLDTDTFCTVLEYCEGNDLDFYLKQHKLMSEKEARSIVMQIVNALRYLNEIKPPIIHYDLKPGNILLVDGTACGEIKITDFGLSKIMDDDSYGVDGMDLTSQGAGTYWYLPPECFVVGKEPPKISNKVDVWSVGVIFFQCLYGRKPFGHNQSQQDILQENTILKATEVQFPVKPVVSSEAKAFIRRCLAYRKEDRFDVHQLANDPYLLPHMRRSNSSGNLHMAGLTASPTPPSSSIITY
# [9] = biological target: T2, Aurora kinase A (Homo sapiens) (UniProt O14965); assay: Selectivity interaction (ActivX KiNativ screen (kinase selectivity in THP-1 cell lysates)) EUB0000639a STK6; format: subcellular; details: lysate, at 1 µM
# T2 sequence (whole entry): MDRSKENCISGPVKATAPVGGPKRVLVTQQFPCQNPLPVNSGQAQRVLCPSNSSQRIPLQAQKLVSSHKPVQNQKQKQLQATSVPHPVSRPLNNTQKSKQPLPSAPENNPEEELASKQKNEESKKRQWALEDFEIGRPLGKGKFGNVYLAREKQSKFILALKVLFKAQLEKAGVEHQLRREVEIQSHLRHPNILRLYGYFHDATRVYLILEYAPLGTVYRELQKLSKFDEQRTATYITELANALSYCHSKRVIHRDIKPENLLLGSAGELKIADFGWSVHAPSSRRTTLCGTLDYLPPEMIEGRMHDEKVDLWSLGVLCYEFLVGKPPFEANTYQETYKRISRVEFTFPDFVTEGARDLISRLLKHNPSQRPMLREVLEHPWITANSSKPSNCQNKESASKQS
# [10] = biological target: LIM domain kinase 1 (Homo sapiens) (UniProt P53667); assay: Selectivity interaction (KinomeScan (DiscoverX)) EUB0000595a LIMK1; details: at 10 µM
# Chain of LIM domain kinase 1 (Homo sapiens) (P53667 whole entry, looked up, the tested form may be a part): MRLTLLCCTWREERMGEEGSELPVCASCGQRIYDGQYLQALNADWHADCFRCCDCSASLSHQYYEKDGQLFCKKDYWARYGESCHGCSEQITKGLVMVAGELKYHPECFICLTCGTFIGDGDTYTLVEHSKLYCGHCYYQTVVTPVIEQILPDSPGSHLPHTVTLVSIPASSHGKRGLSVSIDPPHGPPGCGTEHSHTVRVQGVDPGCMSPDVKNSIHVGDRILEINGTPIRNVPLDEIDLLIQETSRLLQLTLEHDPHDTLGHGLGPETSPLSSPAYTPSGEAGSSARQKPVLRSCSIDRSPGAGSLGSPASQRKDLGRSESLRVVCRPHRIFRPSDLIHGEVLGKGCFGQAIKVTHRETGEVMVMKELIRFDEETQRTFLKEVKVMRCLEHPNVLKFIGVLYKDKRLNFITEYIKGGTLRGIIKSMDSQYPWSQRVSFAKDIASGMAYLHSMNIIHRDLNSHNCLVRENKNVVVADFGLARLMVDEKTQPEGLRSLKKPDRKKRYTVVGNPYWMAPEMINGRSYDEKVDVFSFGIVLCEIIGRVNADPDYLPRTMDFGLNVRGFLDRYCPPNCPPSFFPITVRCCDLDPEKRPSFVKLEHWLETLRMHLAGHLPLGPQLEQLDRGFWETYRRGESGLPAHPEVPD
# [11] = biological target: Serine/threonine-protein kinase 33 (Homo sapiens) (UniProt Q9BYT3); assay: Selectivity interaction (KinomeScan (DiscoverX)) EUB0000092b STK33; details: at 10 µM
# [12] = biological target: Ribosomal protein S6 kinase alpha-6 (Homo sapiens, UniProt Q9UK32); assay: Selectivity interaction (Ambit KINOMEscan and KiNATiv profiling in Jurkat cells) EUB0000090b RPS6KA6; format: cell-based; details: at 1 µM
# Chain of Ribosomal protein S6 kinase alpha-6 (Q9UK32 whole entry): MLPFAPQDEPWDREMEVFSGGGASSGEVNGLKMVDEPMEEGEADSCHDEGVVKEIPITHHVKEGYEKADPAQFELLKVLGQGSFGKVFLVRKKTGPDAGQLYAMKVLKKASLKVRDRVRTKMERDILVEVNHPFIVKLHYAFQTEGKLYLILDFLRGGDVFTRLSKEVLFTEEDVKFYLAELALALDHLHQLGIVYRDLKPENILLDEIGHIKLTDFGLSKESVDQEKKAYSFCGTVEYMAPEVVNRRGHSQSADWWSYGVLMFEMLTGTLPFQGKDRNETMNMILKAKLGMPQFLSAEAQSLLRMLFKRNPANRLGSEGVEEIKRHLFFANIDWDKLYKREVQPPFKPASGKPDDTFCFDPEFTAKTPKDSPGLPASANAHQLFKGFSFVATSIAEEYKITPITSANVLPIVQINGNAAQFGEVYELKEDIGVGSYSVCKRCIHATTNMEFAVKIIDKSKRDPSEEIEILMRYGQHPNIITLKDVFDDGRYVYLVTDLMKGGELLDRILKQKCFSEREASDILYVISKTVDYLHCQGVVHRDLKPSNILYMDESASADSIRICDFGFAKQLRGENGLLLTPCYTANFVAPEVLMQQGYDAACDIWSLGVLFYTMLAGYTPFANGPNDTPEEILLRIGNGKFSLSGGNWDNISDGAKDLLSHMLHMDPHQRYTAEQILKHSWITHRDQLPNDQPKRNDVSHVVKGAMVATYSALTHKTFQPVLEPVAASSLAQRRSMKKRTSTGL
# [13] = system: Tyrosine-protein kinase ABL1 (Homo sapiens), P00519 [H396P]; assay: Selectivity interaction (Ambit KINOMEscan and KiNATiv profiling in Jurkat cells) EUB0000090b ABL1; format: cell-based; details: at 1 µM
# [14] = biological target: T3, Serine/threonine-protein kinase NLK (Homo sapiens) (UniProt Q9UBE8); assay: Selectivity interaction (Upstate Kinase Profiler service (Millipore)) EUB0000056c NLK; details: at 1 µM
# T3 sequence (whole entry): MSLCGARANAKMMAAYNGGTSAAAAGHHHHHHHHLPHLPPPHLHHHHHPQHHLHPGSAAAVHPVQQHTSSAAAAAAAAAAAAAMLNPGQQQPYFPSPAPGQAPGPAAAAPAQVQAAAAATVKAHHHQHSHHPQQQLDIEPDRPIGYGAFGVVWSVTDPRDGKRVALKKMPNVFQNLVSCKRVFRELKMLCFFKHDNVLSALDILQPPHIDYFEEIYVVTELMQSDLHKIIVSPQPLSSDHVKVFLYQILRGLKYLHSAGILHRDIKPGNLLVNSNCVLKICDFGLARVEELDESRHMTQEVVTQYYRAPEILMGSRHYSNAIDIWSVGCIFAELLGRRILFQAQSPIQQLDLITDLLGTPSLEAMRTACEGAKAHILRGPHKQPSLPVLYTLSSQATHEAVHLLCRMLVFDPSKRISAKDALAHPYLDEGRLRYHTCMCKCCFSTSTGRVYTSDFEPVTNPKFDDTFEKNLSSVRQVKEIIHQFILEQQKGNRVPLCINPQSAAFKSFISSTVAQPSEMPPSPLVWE
# [15] = biological target: LIM domain kinase 1 (Homo sapiens) (UniProt P53667); assay: Selectivity interaction (KinomeScan (DiscoverX)) EUB0000695a LIMK1; details: at 100 nM
# [16] = biological target: Dual specificity tyrosine-phosphorylation-regulated kinase 1B (Homo sapiens, UniProt Q9Y463); assay: Selectivity interaction (Kinase panel (Z-LYTE Assay)) EUB0001632a DYRK1B; details: at 10 µM
# Chain of Dual specificity tyrosine-phosphorylation-regulated kinase 1B (Q9Y463 whole entry, looked up): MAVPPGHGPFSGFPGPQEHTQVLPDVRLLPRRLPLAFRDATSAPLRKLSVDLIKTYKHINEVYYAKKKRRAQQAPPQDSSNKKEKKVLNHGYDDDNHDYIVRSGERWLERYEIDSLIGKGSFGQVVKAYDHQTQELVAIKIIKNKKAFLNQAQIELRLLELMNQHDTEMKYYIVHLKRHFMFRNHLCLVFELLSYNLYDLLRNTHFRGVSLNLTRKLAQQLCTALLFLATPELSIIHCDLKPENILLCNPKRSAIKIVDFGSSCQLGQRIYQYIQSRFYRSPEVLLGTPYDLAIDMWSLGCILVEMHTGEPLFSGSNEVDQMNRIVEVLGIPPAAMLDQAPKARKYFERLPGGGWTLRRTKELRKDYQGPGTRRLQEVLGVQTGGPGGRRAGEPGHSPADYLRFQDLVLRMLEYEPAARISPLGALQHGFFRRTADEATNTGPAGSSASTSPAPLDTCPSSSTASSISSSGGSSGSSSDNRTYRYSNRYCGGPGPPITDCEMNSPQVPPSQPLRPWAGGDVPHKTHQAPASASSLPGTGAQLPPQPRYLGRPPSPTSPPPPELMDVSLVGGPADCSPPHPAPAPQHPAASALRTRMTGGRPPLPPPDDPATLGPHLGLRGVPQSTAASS
# [17] = system: Epidermal growth factor receptor (Homo sapiens), P00533 [UNDEFINED MUTATION]; assay: Selectivity interaction (ProQinase) EUB0000171b EGFR; details: at 1 µM
# Chain of 4-aminobutyrate aminotransferase, mitochondrial (P80404 whole entry): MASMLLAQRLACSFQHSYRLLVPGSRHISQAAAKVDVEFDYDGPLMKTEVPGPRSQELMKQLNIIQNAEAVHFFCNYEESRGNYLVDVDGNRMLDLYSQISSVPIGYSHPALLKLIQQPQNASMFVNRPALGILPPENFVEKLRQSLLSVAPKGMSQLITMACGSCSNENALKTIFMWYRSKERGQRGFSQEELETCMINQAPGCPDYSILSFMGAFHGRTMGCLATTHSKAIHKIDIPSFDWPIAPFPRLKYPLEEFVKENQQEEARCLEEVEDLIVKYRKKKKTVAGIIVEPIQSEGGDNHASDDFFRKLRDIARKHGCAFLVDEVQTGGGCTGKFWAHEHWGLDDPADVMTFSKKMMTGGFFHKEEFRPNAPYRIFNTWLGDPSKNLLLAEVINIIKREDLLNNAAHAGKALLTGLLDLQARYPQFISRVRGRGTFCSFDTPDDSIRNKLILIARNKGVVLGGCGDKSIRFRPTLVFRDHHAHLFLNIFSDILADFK
compound,measurement,setting,value
CCc1ccccc1C(=O)Nc1n[nH]c2c(C)c(F)c(C3C(C#N)=C(C)N(C)C(C)=C3C#N)cc12 [BAY-3827],% of inhibition,[1],85.6%
COc1cc(Nc2nc(C)cc(-c3cnn4nc(OC)ccc34)n2)cc(C(F)(F)F)c1,% of control,[2],86%
COc1cc(N(C)c2ccnc3ccc(C(F)(F)F)cc23)cc(OC)c1OC,% binding,[3],87%
Nc1cnc(N2CCc3cc(S(=O)(=O)Nc4c(F)cc(Cl)cc4F)cc(N4CCCC4=O)c32)nc1 [TP-020n],% of control,[4],83%
C=CC(=O)Nc1ccc(C(=O)Nc2[nH]nc3c2CN(C(=O)N[C@H](CN(C)C)c2ccccc2)C3(C)C)cc1,% of engagement,[5],3.8%
CCN(CC)CCCCNc1ncc2cc(-c3cc(OC)cc(OC)c3)c(NC(=O)NC(C)(C)C)nc2n1,% of control,[6],100%
same,% of control,[7],100%
CC[C@@H]1[C@H](F)C(=O)N[C@@H]1COc1nccc2cc(C(N)=O)c(OC)cc12 [ZIMLOVISERTIB],% of inhibition,[8],74%
same,% of inhibition,[9],9.2%
COCC(=O)NC/C=C/c1ccc2ncnc(Nc3ccc(Oc4ccc(C)nc4)c(C)c3)c2c1 [CP-724714],% of control,[10],93%
CCC(=O)N1CCN(c2ccc(-n3c(=O)ccc4cnc5ccc(-c6cnc7ccccc7c6)cc5c43)cc2C(F)(F)F)CC1,% of control,[11],90%
CN(C)C/C=C/C(=O)Nc1ccc(C(=O)N2CCCC(Nc3ncc(Cl)c(-c4c[nH]c5ccccc45)n3)C2)cc1 (configuration not stated),% of control,[12],92%
same,% of control,[13],100%
Cc1ccc(-c2ccc3c(ccc4sc5c(c43)NC[C@@H](C)NC5=O)n2)cn1,% of inhibition,[14],25%
Cc1cc(F)c(C(=O)Nc2cccc(-c3nncn3C(C)C)n2)cc1-n1cnc(C2CC2)c1,% of control,[15],99%
Cn1cc(-n2cnc3c(NCc4nc5cc(Cl)c(Cl)cc5[nH]4)nc(N4CCOCC4)nc32)cn1,% of control,[16],3.54%
C=CC(=O)Nc1cccc(C(=O)Nc2ccc(Nc3cc(-c4[nH]c(SC)nc4C)ccn3)cc2)c1,% of control,[17],85%
